Assay results taken from US12145975B2, “Fusion proteins for the treatment of cardiometabolic diseases” (Shattuck Labs, Inc., priority 2022, dated 2024).
“Also recorded” adds a separate entry of the source. Where no end group is shown, it is not given here.

Columns and labels:
[1] = biological target: T1, GIPR (Rattus norvegicus, UniProt P43219); assay: GIPR agonism/antagonism in rat INS-1 cells having pGloSensor-22F biosensor; format: cell-based; design: dose or concentration left out as unconfirmed
T1 construct: endogenous in cells; host or cells: rat INS-1 insulinoma cells (derivatives with a cAMP-luciferase reporter or pGloSensor-22F)
T1 sequence (P43219 19-455): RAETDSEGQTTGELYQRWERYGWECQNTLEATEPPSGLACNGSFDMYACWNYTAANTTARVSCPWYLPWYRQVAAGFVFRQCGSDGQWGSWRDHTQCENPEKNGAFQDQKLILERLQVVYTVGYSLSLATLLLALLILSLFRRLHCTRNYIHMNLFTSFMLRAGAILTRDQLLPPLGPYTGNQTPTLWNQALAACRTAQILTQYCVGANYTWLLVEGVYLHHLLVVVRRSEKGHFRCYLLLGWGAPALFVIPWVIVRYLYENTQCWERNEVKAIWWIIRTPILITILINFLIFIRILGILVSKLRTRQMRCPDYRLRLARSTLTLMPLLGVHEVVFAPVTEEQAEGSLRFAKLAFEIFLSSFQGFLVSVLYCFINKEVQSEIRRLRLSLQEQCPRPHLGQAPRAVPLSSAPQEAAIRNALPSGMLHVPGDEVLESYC
Experimental: A series of GIP antagonist peptides were evaluated at blocking human GIP (hGIP) agonism and the induction of cAMP. Briefly, rat INS-1 cells having pGloSensor-22F (Promega) were constructed and used to evaluate GIPR agonism and antagonism. […] The conformational change leads to the activation of the luciferase enzyme, thereby allowing detection of activation of GIPR, which produces cAMP upon activation.
To assay for GIPR agonism, rat INS-1 cells having pGloSensor-22F biosensor were treated with increasing concentrations of GIP(Ag). Immediately after the addition, the luminescence of the cells was measured, normalized using the basal luminescence and plotted.
GIPR antagonism was measured as the inhibition of GIP(Ag)-induced activation of the cAMP-luciferase reporter gene in rat INS-1 cells having pGloSensor-22F biosensor. The following GIP derivatives accessed in this assay for GIPR antagonism: GIP(Ant 3-30), GIP(Ant 3-30NH2), (GIP(Ant 3-30) having amidated carboxy terminus), GIP(AntPro3), GIP(AntPro3NH2), GIP(Ant3-30, Pro3) and GIP(Ant3-30, Pro3NH2). Briefly, rat INS-1 cells having pGloSensor-22F were treated with increasing doses of the above various GIP derivatives, mixed with […] GIP(Ag). Immediately after the addition, the luminescence of the cells was measured, normalized using the basal luminescence and plotted.
The GIP(Ag) was re-evaluated across a broader concentration range. Rat INS-1 cells having pGloSensor-22F biosensor were treated with increasing concentrations of GIP(Ag). Immediately after the addition, the luminescence of the cells was measured, normalized using the basal luminescence and plotted.
The GIP(AntPro3) and GIP(AntPro3NH2) were re-evaluated across a broader concentration range. Briefly, rat INS-1 cells having pGloSensor-22F were treated with increasing doses of GIP(AntPro3) and GIP(AntPro3NH2), mixed with […] GIP(Ag). Immediately after the addition, the luminescence of the cells was measured, normalized using the basal luminescence and plotted.

[2] = system: HFD-fed mice; assay: longer-term obesity model in HFD-fed mice; details: for blood glucose levels compared to the untreated mice: Days 0, 1, 10 and 15, FIG. 8E; for weights of individual mice: FIG. 8B; for plasma insulin levels on Day 15: FIG. 8C right panel; for average daily food intake compared to the untreated mice: FIG. 8D; for collagen staining (fibrosis), liver sections stained with picrosirius red / collagen staining (fibrosis) in comparison with tirzepatide or dulaglutide: FIG. 8I; for hepatocellular ballooning and steatosis (liver H&E histology): FIG. 8J; for plasma insulin levels on Day 1: between 15 and 120 minutes after treatment, FIG. 8C left panel; for liver weight, PBS control versus treated mice / subcutaneous white adipose tissue (sWAT) weight: day 19 terminal necropsy; for liver weight, PBS control versus treated mice: FIG. 8G; for subcutaneous white adipose tissue (sWAT) weight: FIG. 8H; for tolerability / clinical observations: obesity model, repeated tail vein dosing; for collagen staining (fibrosis) in comparison with tirzepatide or dulaglutide: picrosirius red; for change in body weight: tail vein on Day 0, 4, 7, 10, 14, 18, dulaglutide 1 mpk, tirzepatide 0.5 mpk, fusion protein 5 mpk, mRNA 1 mpk, FIG. 8A
Experimental: Mice (Male C57BL/6) were of approximately 13 weeks of age were housed 4 mice per cage. Following 2 weeks of acclimation, mice were introduced to 60% kcal HFD (Research Diets D12492). Cages were changed once, then changed once a week. Weekly body weights and non-fasted blood glucose were collected.
Mice were injected by tail vein with vehicle or the drugs on Day 0, Day 4, Day 7, Day 10, Day 14, and Day 18. Body weights were measured every 2 days. Change in body weight was calculated and plotted.
Cumulative food intake was measured between day 0 and 3, between day 4 and 7, between day 7 and day 11, and between day 11 and day 14, and represented as average daily food intake. For food consumption, remaining food was weighed on days 3, 8, and 15, and subtracted from the starting weight. This value was then normalized to the number of mice in the cage, and the number of days the mice had access to the food prior to weighing.
Blood glucose levels were measured on Days 0, 1, 10 and 15 and plotted.
On day 19 during terminal necropsy, liver and subcutaneous white adipose tissue were recovered weighed from treated animals.
To further analyze the changes in liver, histopathological analysis was conducted. Briefly, the liver tissue was stained with hematoxylin and eosin (H&E) and evaluated using standard techniques.

[3] = system: rat insulinoma INS-1 cells; assay: in vitro glucose-stimulated insulin secretion (GSIS) in rat insulinoma INS-1 cells; format: cell-based; details: 1 hour glucose, then 2 hour incubation; ELISA; FIG. 4B
Source text: X is a known inducer of GSIS.

[4] = system: HFD-fed mice; assay: glucose tolerance test (GTT) model in HFD-fed mice; format: in vivo; details: for serum insulin following glucose administration (time course) / glucose tolerance: GTT; for serum insulin following glucose administration (time course): FIG. 7C; for glucose tolerance: summary of Example 11; for serum glucose following glucose administration (time course): i.v. treatment, 18 hours fast, 2 g/kg glucose i.v., tirzepatide 1.25 mpk, fusion protein 5 mpk, mRNA 1 mpk, FIG. 7A
Experimental: Cages were changed once, then changed once a week.
The mice administered the above treatment by i.v. injections. The mice were then fasted for 18 hours and administered a dose of 2 g/kg glucose by i.v. injections. Blood samples were drawn by tail clip bleeding at 15, 30 and 60 minutes post dosing and cardiac bleeding was used at 2 hours after glucose injection as end-point.

[5] = biological target: T2, GIP receptor (GIPR) (Rattus norvegicus, UniProt P43219); assay: cAMP-Glo assay in rat insulinoma INS-1 cells harboring a cAMP-luciferase reporter gene; format: cell-based; details: 1 hour glucose, then 2 hour incubation with increasing amounts; FIG. 4A
T2 construct: endogenous in cells; host or cells: rat INS-1 insulinoma cells (derivatives with a cAMP-luciferase reporter or pGloSensor-22F)
T2 sequence (P43219 19-455): T1 sequence (P43219 19-455)
Source text: Rat insulinoma INS-1 cells harboring a cAMP-luciferase reporter gene were used to study the activation of GIPR. Without wishing to be bound by theory, the activation of GIPR leads to temporary depletion of ATP because of consumption of ATP in cyclization reaction to produce cAMP as well as by phosphorylation by protein kinase A of its substrate. Without wishing to be bound by theory, the temporary depletion of ATP leads to an inhibition of luciferase activity, which needs ATP as a substrate.

[6] = broader concentration range, mixed with GIP(Ag), FIG. 5B
[7] = increasing doses mixed with GIP(Ag), FIG. 5A

Substance | inhibition of GIP(Ag)-induced activation of the cAMP-luciferase reporter gene (GIPR antagonism) [1, 6] | inhibition of GIP(Ag)-induced activation of the cAMP-luciferase reporter gene (GIPR antagonism) [1, 7] | blood glucose levels compared to the untreated mice [2] | weights of individual mice [2] | plasma insulin levels on Day 15 [2] | average daily food intake compared to the untreated mice [2] | collagen staining (fibrosis), liver sections stained with picrosirius red [2] | hepatocellular ballooning and steatosis (liver H&E histology) [2] | plasma insulin levels on Day 1 [2] | liver weight, PBS control versus treated mice [2] | subcutaneous white adipose tissue (sWAT) weight [2] | tolerability / clinical observations [2] | collagen staining (fibrosis) in comparison with tirzepatide or dulaglutide [2] | change in body weight [2] | insulin in the culture supernatant (glucose-stimulated insulin secretion) [3] | serum insulin following glucose administration (time course) [4] | glucose tolerance [4] | serum glucose following glucose administration (time course) [4] | hepatocellular ballooning and steatosis (liver H&E histology) compared to untreated animals ([2]; higher magnifications, FIG. 8K) | inhibition of luciferase (activation of GIPR) [5]
GIP(AntPro3): GIP Antagonist (amino acids 1-42, having a E3P substitution); SEQ ID NO: 97 (YAPGTFISDYSIAMDKIHQQDFVNWLLAQKGKKNDWKHNITQ) | dose-dependent inhibition of GIP(Ag)-induced activation of the cAMP-luciferase reporter gene | more potent inhibition of GIP agonist signaling than the others tested; also recorded: maximal level of a dose-dependent inhibition of GIP(Ag)-induced activation | – | – | – | – | – | – | – | – | – | – | – | – | – | – | – | – | – | –
GIP(AntPro3NH2): GIP antagonist peptide, GIP(AntPro3) presumably with amidated carboxy terminus (YAPGTFISDYSIAMDKIHQQDFVNWLLAQKGKKNDWKHNITQ; also: presumably amidated C-terminus) | dose-dependent inhibition of GIP(Ag)-induced activation of the cAMP-luciferase reporter gene | more potent inhibition of GIP agonist signaling than the others tested; also recorded: maximal level of a dose-dependent inhibition of GIP(Ag)-induced activation | – | – | – | – | – | – | – | – | – | – | – | – | – | – | – | – | – | –
GLP-1-Fc-GIP(Ag): chimeric protein: GLP-1 fused to GIP agonist (amino acids 1-42) via IgG1 hinge-CH2-CH3 Fc domain; SEQ ID NO: 93 | – | – | decrease in blood glucose | induced weight loss | significant decrease in the levels of insulin | decrease in food intake | decrease in collagen staining | decrease in hepatocellular ballooning and steatosis | rapid decrease in insulin levels | the livers of control mice that received only PBS were much heavier compared to the mice receiving treatments | decreased | well tolerated and no overt toxicities were noted | greater decrease in collagen staining compared to the livers from mice treated with tirzepatide or dulaglutide | progressive weight loss | stimulated insulin production to a similar, if not greater magnitude than dulaglutide or tirzepatide | rapid induction of insulin | improved glucose tolerance | much smaller increase in serum glucose | – | –
GLP-1-Fc-GIP(AntPro3): chimeric protein: GLP-1 fused to GIP antagonist (amino acids 1-42, E3P) via IgG1 Fc domain; SEQ ID NO: 95 | – | – | decrease in blood glucose | induced weight loss | significant decrease in the levels of insulin | decrease in food intake | decrease in collagen staining | decrease in hepatocellular ballooning and steatosis | rapid decrease in insulin levels | the livers of control mice that received only PBS were much heavier compared to the mice receiving treatments | decreased | well tolerated and no overt toxicities were noted | greater decrease in collagen staining compared to the livers from mice treated with tirzepatide or dulaglutide | progressive weight loss | – | rapid induction of insulin | improved glucose tolerance | much smaller increase in serum glucose | – | –
dulaglutide [reference compound] | – | – | decrease in blood glucose | – | significant decrease in the levels of insulin | decrease in food intake | decrease in collagen staining | decrease in hepatocellular ballooning and steatosis | rapid decrease in insulin levels | the livers of control mice that received only PBS were much heavier compared to the mice receiving treatments | decreased | well tolerated and no overt toxicities were noted | – | progressive weight loss | – | – | – | – | – | –
tirzepatide [reference compound] | – | – | decrease in blood glucose | – | significant decrease in the levels of insulin | decrease in food intake | decrease in collagen staining | decrease in hepatocellular ballooning and steatosis | – | the livers of control mice that received only PBS were much heavier compared to the mice receiving treatments | decreased | – | – | progressive weight loss | – | rapid induction of insulin | – | much smaller increase in serum glucose | significant decrease in hepatocellular ballooning and steatosis | dose-dependent and saturable inhibition of luciferase with similar potency
